US12534472B2, “Morphic forms of trilaciclib and methods of manufacture thereof” (Pharmacosmos Holding A/S, priority 2020, dated 2026)

Assays:
Format in all cases: physicochemical
[1] = Dynamic Vapor Sorption (DVS); conditions: for Change in Mass (%)-ref Desorption / Change in Mass (%)-ref Sorption / Change in Mass (%)-ref Hysteresis: DVS; for Change in Mass (%)-ref Desorption / Change in Mass (%)-ref Sorption: 25° C.
Description: Approximately, 10-20 mg of sample was placed into a mesh vapor sorption balance pan and loaded into a DVS Intrinsic dynamic vapor sorption balance by Surface Measurement Systems. The sample was subjected to a ramping profile from 40-90% relative humidity (RH) at 10% increments, maintaining the sample at each step until a stable weight had been achieved (dm/dt 0.004%, minimum step length 30 minutes, maximum step length 500 minutes) at 25° C. After completion of the sorption cycle, the sample was dried using the same procedure to 0% RH and then a second sorption cycle back to 40% RH. Two cycles were performed. The weight change during the sorption/desorption cycles were plotted, allowing for the hygroscopic nature of the sample to be determined. XRPD analysis was then carried out on any solid retained. The above technique was used to generate the images in FIG. 5, FIG. 6, FIG. 47 and FIG. 48.

[2] = Thermodynamic solubility in water at pH 4.2
Description: Thermodynamic solubility was carried out for Pattern 1, Pattern 2/6 mixture, Pattern 3, amorphous di-HCl salts and Pattern 7 in water at pH 4.2. All samples were prepared at 30 mg/mL. Initial observations were made. The samples were agitated at ambient temperature for ca. 24 hours. The samples were collected and observations made. Observed solids were isolated via centrifugation. The mother liquor from the filtered sample was analyzed by HPLC. The pH 4.3 solution was prepared by diluting glacial acetic acid (11.6 mL) to 100 mL in deionized water, then adding sodium acetate (1.07 g) and acetic acid solution (5.9 mL) preparing up to 500 mL with deionized water; then the pH was adjusted to 4.2. The above technique was used to generate the images in FIG. 60.

[3] = Dynamic Vapor Sorption (DVS); conditions: Cycle 3, sorption, 25° C.

## CN1CCN(c2ccc(Nc3ncc4cc5n(c4n3)C3(CCCCC3)CNC5=O)nc2)CC1 [Pattern 3, 2′-((5-(4-methylpiperazin-1-yl)pyridin-2-yl)amino)-7′,8′-dihydro-6′H-spiro[cyclohexane-1,9′-pyrazino[1′,2′:1,5]pyrrolo[2,3-d]pyrimidin]-6′-one]
[1]; Cycle 1, desorption, target RH 0%
  Change in Mass (%)-ref Desorption: 0.000%
[1]; Cycle 1, desorption, target RH 10%
  Change in Mass (%)-ref Desorption: 0.863%
[1]; Cycle 1, desorption, target RH 20%
  Change in Mass (%)-ref Desorption: 1.274%
[1]; Cycle 1, desorption, target RH 30%
  Change in Mass (%)-ref Desorption: 1.818%
[1]; Cycle 1, desorption, target RH 40%
  Change in Mass (%)-ref Desorption: 2.223%
[1]; Cycle 1, desorption, target RH 50%
  Change in Mass (%)-ref Desorption: 2.491%
[1]; Cycle 1, desorption, target RH 60%
  Change in Mass (%)-ref Desorption: 2.727%
[1]; Cycle 1, desorption, target RH 70%
  Change in Mass (%)-ref Desorption: 2.940%
[1]; Cycle 1, desorption, target RH 80%
  Change in Mass (%)-ref Desorption: 3.171%
[1]; Cycle 1, desorption, target RH 90%
  Change in Mass (%)-ref Desorption: 3.555%
[1]; Cycle 1, sorption, target RH 40%
  Change in Mass (%)-ref Sorption: 2.516%
[1]; Cycle 1, sorption, target RH 50%
  Change in Mass (%)-ref Sorption: 2.780%
[1]; Cycle 1, sorption, target RH 60%
  Change in Mass (%)-ref Sorption: 2.970%
[1]; Cycle 1, sorption, target RH 70%
  Change in Mass (%)-ref Sorption: 3.115%
[1]; Cycle 1, sorption, target RH 80%
  Change in Mass (%)-ref Sorption: 3.288%
[1]; Cycle 1, sorption, target RH 90%
  Change in Mass (%)-ref Sorption: 3.555%
[1]; Cycle 1, target RH 40%
  Change in Mass (%)-ref Hysteresis: −0.292%
[1]; Cycle 1, target RH 50%
  Change in Mass (%)-ref Hysteresis: −0.289%
[1]; Cycle 1, target RH 60%
  Change in Mass (%)-ref Hysteresis: −0.242%
[1]; Cycle 1, target RH 70%
  Change in Mass (%)-ref Hysteresis: −0.175%
[1]; Cycle 1, target RH 80%
  Change in Mass (%)-ref Hysteresis: −0.117%
[1]; Cycle 2, desorption, target RH 0%
  Change in Mass (%)-ref Desorption: 0.075%
[1]; Cycle 2, desorption, target RH 10%
  Change in Mass (%)-ref Desorption: 0.885%
[1]; Cycle 2, desorption, target RH 20%
  Change in Mass (%)-ref Desorption: 1.290%
[1]; Cycle 2, desorption, target RH 30%
  Change in Mass (%)-ref Desorption: 1.711%
[1]; Cycle 2, desorption, target RH 40%
  Change in Mass (%)-ref Desorption: 1.977%
[1]; Cycle 2, desorption, target RH 50%
  Change in Mass (%)-ref Desorption: 2.171%
[1]; Cycle 2, desorption, target RH 60%
  Change in Mass (%)-ref Desorption: 2.337%
[1]; Cycle 2, desorption, target RH 70%
  Change in Mass (%)-ref Desorption: 2.510%
[1]; Cycle 2, desorption, target RH 80%
  Change in Mass (%)-ref Desorption: 2.717%
[1]; Cycle 2, desorption, target RH 90%
  Change in Mass (%)-ref Desorption: 3.093%
[1]; Cycle 2, sorption, target RH 0%
  Change in Mass (%)-ref Sorption: 0.000%
[1]; Cycle 2, sorption, target RH 10%
  Change in Mass (%)-ref Sorption: 0.831%
[1]; Cycle 2, sorption, target RH 20%
  Change in Mass (%)-ref Sorption: 1.198%
[1]; Cycle 2, sorption, target RH 30%
  Change in Mass (%)-ref Sorption: 1.468%
[1]; Cycle 2, sorption, target RH 40%
  Change in Mass (%)-ref Sorption: 1.853%
[1]; Cycle 2, sorption, target RH 50%
  Change in Mass (%)-ref Sorption: 2.092%
[1]; Cycle 2, sorption, target RH 60%
  Change in Mass (%)-ref Sorption: 2.271%
[1]; Cycle 2, sorption, target RH 70%
  Change in Mass (%)-ref Sorption: 2.461%
[1]; Cycle 2, sorption, target RH 80%
  Change in Mass (%)-ref Sorption: 2.700%
[1]; Cycle 2, sorption, target RH 90%
  Change in Mass (%)-ref Sorption: 3.093%
[1]; Cycle 2, target RH 10%
  Change in Mass (%)-ref Hysteresis: 0.054%
[1]; Cycle 2, target RH 20%
  Change in Mass (%)-ref Hysteresis: 0.091%
[1]; Cycle 2, target RH 30%
  Change in Mass (%)-ref Hysteresis: 0.243%
[1]; Cycle 2, target RH 40%
  Change in Mass (%)-ref Hysteresis: 0.124%
[1]; Cycle 2, target RH 50%
  Change in Mass (%)-ref Hysteresis: 0.080%
[1]; Cycle 2, target RH 60%
  Change in Mass (%)-ref Hysteresis: 0.066%
[1]; Cycle 2, target RH 70%
  Change in Mass (%)-ref Hysteresis: 0.050%
[1]; Cycle 2, target RH 80%
  Change in Mass (%)-ref Hysteresis: 0.018%
[1]; Cycle 3, sorption, target RH 10%
  Change in Mass (%)-ref Sorption: 0.861%
[1]; Cycle 3, sorption, target RH 20%
  Change in Mass (%)-ref Sorption: 1.198%
[1]; Cycle 3, sorption, target RH 40%
  Change in Mass (%)-ref Sorption: 1.757%
[1]; at 40% RH, listed as Pattern 3 scale-up
  moisture adsorbed (DVS): 2.5 wt %
[1]; at 60% RH
  moisture adsorbed (DVS): 3.1 wt %
[1]; at 90% RH
  mass increase by DVS: ca. 4%
[1]; at 90% RH, listed as Pattern 3 scale-up
  moisture adsorbed (DVS): 3.5 wt %
[1]; between 0% and 90% RH
  mass increase by DVS: 4%
[2]; 30 mg/mL in water at pH 4.2, agitated at ambient temperature ca. 24 hours
  Observations at T = 24 hours: Yellow solution
[2]; 30 mg/mL in water at pH 4.2, ambient temperature, T = 0 hours
  Observations at T = 0 hours: Yellow solution (dissolved
[3]; target RH 0%
  Change in Mass (%)-ref Sorption: 0.075%
[3]; target RH 30%
  Change in Mass (%)-ref Sorption: 1.443%
